Assay results: patent US7264932B2, “Nuclease inhibitor cocktail” (Applera Corporation, priority 1999, dated 2007)

Tests used:
nuclease = nuclease (Homo sapiens, UniProt P03950); assay: Ki of Lead 1 and Lead 2 analogs (Tables 1 and 2); format: biochemical; conditions: Table 1, Lead 1 Analog List
bovine RNase A [1] = molecular target: T1, bovine RNase A (Bos taurus, UniProt P61823); assay: Intactness of total RNA (RNA LabChip), bovine RNase A; format: biochemical; conditions: 100 uM BpB, 8.3 pg/ul bovine RNase A
T1 sequence (P61823 27-150): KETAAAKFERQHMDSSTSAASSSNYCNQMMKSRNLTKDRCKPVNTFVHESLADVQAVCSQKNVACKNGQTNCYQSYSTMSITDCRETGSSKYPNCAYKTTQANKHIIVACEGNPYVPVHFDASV
Method: (§1) A total of 100 pg/ul e. […].
(§2) Mouse pancreatic tissue (5 mg) was disrupted in 50 ul of 24 mM Hepes, pH 7.2, 50 mM NaCl, 1 mM MgCl2. The diluted lysate (1:20,000) was pre-incubated with 50 uM Benzopurpurin B (BpB) for 30 sec and then added to 100 ng/ul mouse liver total RNA (Ambion) and incubated at 23 C for an additional 4 min. Samples were quenched in a guanidinium lysis buffer, and the RNA purified via MEGAclear™ MAG-96 and eluted with 20 ul nuclease-free water. […] These experiments were conducted in the same fashion except that 100 uM BpB was employed. The sample (1 ul) was analyzed by 2100 BioAnalyzer software (Agilent) after separation on an RNA LabChip.
(§3) Pancreatic tissue (5 mg) was dounced in 50 ul of 24 mM Hepes, pH 7.2, 50 mM NaCl, 1 mM MgCl2. The lysate was diluted (1:20,000) and then pre-incubated with 200 uM of 467929. […] All samples were pre-incubated for 30 sec before being added to 100 ng/ul mouse liver total RNA (Ambion) and incubated at 23C for an additional 4 min. The RNA was then immediately purified via MEGAclear™ MAG-96 and eluted with 20 ul nuclease-free water. The recovered RNA (1 ul) was analyzed by 2100 BioAnalyzer software after separation on an RNA LabChip.

diluted pancreas lysate = assay: Intactness of total RNA (RNA LabChip), diluted pancreas lysate; format: biochemical, mouse; conditions: pancreas lysate 1:20,000, 23 C 4 min
Method: as §1
Pancreatic lysate (0.1 mg/ml) was diluted 1:20,000 in 24 mM Hepes, pH 7.2, 50 mM NaCl, 1 mM MgCl2 and pre-incubated with either 1% SDS or 6.25 mM OVA for 30 s prior to the addition of 2 ug mouse liver total RNA. Reactions were incubated at 25 C for an additional 4 min, quenched, and analyzed on an RNA LabChip.
as §2
Mouse pancreatic tissue (5 mg) was dounced in 50 ul of 24 mM Hepes, pH 7.2, 50 mM NaCl, 1 mM MgCl2. A diluted lysate (1:20,000) was pre-incubated with 100 uM BpB or the analog Benzopurpurin 4B (Bp4B) for 30 sec and then added to 100 ng/ul mouse liver total RNA (Ambion) and incubated at 23 C for an additional 4 min. Samples were quenched in a guanidinium lysis buffer, and the RNA purified via MEGAclear™ MAG-96 and eluted with 20 ul nuclease-free water. The sample (1 ul) was analyzed by 2100 BioAnalyzer software (Agilent) after separation on an RNA LabChip.
as §3

[2] = molecular target: eosinophil-derived neurotoxin (EDN) (Homo sapiens, UniProt P10153); assay: Intactness of total RNA (RNA LabChip), EDN; format: biochemical; conditions: 100 uM BpB, 1 ng/ul EDN
[3] = molecular target: T2, human pancreatic RNase (HPR) (Homo sapiens, UniProt P07998); assay: Intactness of total RNA (RNA LabChip), HPR; format: biochemical; conditions: 100 uM BpB, 1 ng/ul HPR
T2 sequence (P07998 29-156): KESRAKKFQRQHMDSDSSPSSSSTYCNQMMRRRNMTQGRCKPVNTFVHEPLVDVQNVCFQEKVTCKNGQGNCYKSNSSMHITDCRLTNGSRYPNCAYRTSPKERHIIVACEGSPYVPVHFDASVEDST

E. coli RNase I = E. coli RNase I (Escherichia coli, UniProt P21338); assay: Intactness of total RNA (RNA LabChip), E. coli RNase I; format: biochemical; conditions: 100 uM BpB, 7 ng/ul E. coli RNase I
DNase I = DNase I (Bos taurus, UniProt P00639); assay: Lambda DNA digestion assay with DNase I; format: biochemical; conditions: 0.02 U DNase I, 1 ug lambda DNA, 10 min at 37C
Text: One application for small molecule RNase inhibitors is as an RNA control agent during enzymatic manipulation of solutions containing RNA. These reactions include in vitro transcription, in vitro translation, DNase digestion, and reverse transcription, among others. […] […] […] All reactions were quenched with EDTA and the cleavage products resolved on a 1% agarose gel.
As a result, compounds such as #467929, 140553, and 180582 may have utility in curbing the activity of residual RNases that may carry over from RNA isolation methods during DNase treatments of the RNA.

[4] = tested on: one-step RT-PCR with MMLV-RT and SuperTaq, target hGAPDH; assay: One-step qRT-PCR tolerance, hGAPDH; format: biochemical
Method: To evaluate the compatibility of Benzopurpurin B and 4B in RT-PCR applications, 100 nM, 1 uM, 10 uM, and 25 uM were tested in Ambion's MessageSensor RT-PCR Kit using the supplier's instructions and using primers/probe designed to amplify a 226 nt amplicon from the human GAPDH mRNA. Reaction conditions: 20-ul one-step RT-PCR with MMLV-RT (0.4 U/ul final) and SuperTaq (0.04 U/ul final). Cycling conditions: Stage 1. 42 C for 15 minutes, Stage 2. 95 C for 5 min, Stage 3. 95 C-15 sec and 60 C-60 sec, where Stage 3 is repeated 40 times. […] The compound was tolerated at 10 uM or lower with no significant loss of sensitivity (Table 16).

bovine RNase A [5] = molecular target: T1, bovine RNase A; assay: Ki determination by Dixon analysis (RNaseAlert); format: biochemical; conditions: 74 pM RNase A, 40 nM RNaseAlert substrate, pH 7.0
Text: To measure the inhibition constant of compound #467929 against bovine RNase A, Dixon analysis was used to determine the relationship between RNase activity and inhibitor concentration. The […] fluorescence assay (Ambion) was used to quantify RNase activity.

MMLV RT RNase H = MMLV RT RNase H (Moloney murine leukemia virus, UniProt P03355); assay: RT-based RNase H cleavage of RNA:DNA hybrid; format: biochemical
Method: As described above, Chembridge compound #467929 offered protection from several RNA-specific endonucleolytic activities. […] A 20-mer DNA oligonucleotide was asymmetrically annealed to a 1500 base synthetic RNA to create an RNA:DNA duplex substrate for RNase H. Reactions were initiated with 10 U of MMLV RT in 1× RT buffer (50 mM TrisCl pH 8.3, 75 mM KC, 3 mM MgCl2, 5 mM DTT) containing 500 ng/ul RNA:DNA hybrid. All reactions contained 5% DMSO either with or without the small molecule RNase inhibitor. Samples were incubated for 5 min at 37 C, and quenched with EDTA. Products were resolved on an RNA LabChip. Cleavage products were observed as two equally represented RNA species of 1000 and 500 bases. Product length and yield were determined using the 2100 BioAnalyzer software (Agilent). Table 18 details the level of inhibition of MMLV RT RNase H that is observed as a function of the concentration of compounds 467929 and 227726.

Sequence of E. coli RNase I (P21338 24-268): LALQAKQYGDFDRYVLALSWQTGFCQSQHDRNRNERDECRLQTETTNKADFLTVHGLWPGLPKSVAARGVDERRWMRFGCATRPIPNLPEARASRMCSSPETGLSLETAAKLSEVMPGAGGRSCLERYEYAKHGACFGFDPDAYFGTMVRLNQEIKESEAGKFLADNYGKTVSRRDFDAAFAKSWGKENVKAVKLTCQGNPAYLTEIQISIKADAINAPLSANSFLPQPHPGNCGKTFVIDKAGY
Sequence of DNase I (P00639 23-282): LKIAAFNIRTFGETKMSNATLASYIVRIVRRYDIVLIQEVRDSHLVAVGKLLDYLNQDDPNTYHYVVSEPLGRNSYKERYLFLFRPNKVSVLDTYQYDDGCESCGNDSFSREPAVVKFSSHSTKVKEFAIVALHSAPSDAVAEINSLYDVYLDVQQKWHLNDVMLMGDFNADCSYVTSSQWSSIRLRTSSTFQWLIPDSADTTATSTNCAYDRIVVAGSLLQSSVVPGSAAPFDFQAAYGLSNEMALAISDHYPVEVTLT
Sequence of nuclease (P03950 25-147): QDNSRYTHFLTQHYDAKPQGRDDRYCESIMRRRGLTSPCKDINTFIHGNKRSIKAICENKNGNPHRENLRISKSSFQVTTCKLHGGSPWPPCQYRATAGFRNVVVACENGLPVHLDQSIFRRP
Sequence of eosinophil-derived neurotoxin (EDN) (P10153 28-161): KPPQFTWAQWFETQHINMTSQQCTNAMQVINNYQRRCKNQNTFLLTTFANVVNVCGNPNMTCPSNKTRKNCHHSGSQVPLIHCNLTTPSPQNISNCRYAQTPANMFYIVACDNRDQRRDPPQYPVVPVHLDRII

Structure (SMILES)	Ki (nuclease)	inhibition of RNase (RNA intactness) (bovine RNase A [1])	protection of total RNA from degradation (diluted pancreas lysate; 50 uM BpB)	protection of total RNA from degradation (diluted pancreas lysate; 100 uM inhibitor)	inhibition of RNase (RNA intactness) [2]	inhibition of RNase (RNA intactness) [3]	inhibition of RNase (RNA intactness) (E. coli RNase I)	concentration tolerated with little or no effect on enzymatic DNA cleavage (DNase I)	Ct at 50 ng Input RNA ([4]; RT w RIP, inhibitor 1 uM)	Ct at 50 ng Input RNA ([4]; RT w RIP, inhibitor 10 uM)	Ct at 50 ng Input RNA ([4]; RT w RIP, inhibitor 25 uM)	Ct at 50 ng Input RNA ([4]; RT w RIP, inhibitor 100 nm)	Ct at 50 ng Input RNA ([4]; RT without RIP, inhibitor 1 uM)	Ct at 50 ng Input RNA ([4]; RT without RIP, inhibitor 10 uM)	Ct at 50 ng Input RNA ([4]; RT without RIP, inhibitor 25 uM)	Ct at 50 ng Input RNA ([4]; RT without RIP, inhibitor 100 nm)	Ki (bovine RNase A [5])	% Cleavage (MMLV RT RNase H; inhibitor 8 uM, 36 without inhibitor)	% Cleavage (MMLV RT RNase H; inhibitor 40 uM)
Cc1cc(-c2ccc(/N=N/c3c(N)ccc4cc(S(=O)(=O)O)ccc34)c(C)c2)ccc1/N=N/c1c(N)ccc2cc(S(=O)(=O)O)ccc12 [Benzopurpurin B, 3,3′-di-methylbiphenyl-4,4′-bis(2-amino-naphthylazo-6-sulfo-nate)]	5 µM	effective inhibitor	significant protection	significant protection	effective inhibitor	effective inhibitor	effective inhibitor	up to 10 uM	17.66	19.27	undet	17.27	17.35	17.96	undet	17.39			
O=C(Nc1ccc(Cc2ccc(NC(=O)c3cccc([N+](=O)[O-])c3)c(C(=O)O)c2)cc1C(=O)O)c1cccc([N+](=O)[O-])c1 [compound 467929, 3,3′-dicarboxy-4,4′-bis(3-ni-trophenylamido)di-phenylmethane]																	~12 µM	42%	8%
